“And” between values parts separate entries of the source, which are not always exact repeats. Equal entries are not always repeated.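 Dose response: 5 concentrations. Exposure: 48 h. Format: 96-well plates. Endpoint: linear interpolation; highest concentration if not reached. GI50: concentration for 50% inhibition of growth. TGI is the concentration that stops growth completely.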
Tests used:
Assay in all cases: DTP human tumour cell line panel, 48 h
OVCAR-4 ovarian = test system: OVCAR-4 ovarian
K-562 leukemia = test system: K-562 leukemia
SF-268 CNS = test system: SF-268 CNS
IGROV1 ovarian = test system: IGROV1 ovarian
OVCAR-5 ovarian = test system: OVCAR-5 ovarian
KM12 colon = test system: KM12 colon
HL-60(TB) leukemia = test system: HL-60(TB) leukemia

| SMILES | TGI (OVCAR-4 ovarian) | TGI (K-562 leukemia) | TGI (SF-268 CNS) | TGI (IGROV1 ovarian) | TGI (OVCAR-5 ovarian) | TGI (KM12 colon) | TGI (HL-60(TB) leukemia) | GI50 (OVCAR-4 ovarian) [µM] | GI50 (K-562 leukemia) [µM] | GI50 (SF-268 CNS) [µM] | GI50 (IGROV1 ovarian) [µM] | GI50 (OVCAR-5 ovarian) [µM] | GI50 (KM12 colon) [µM] | GI50 (HL-60(TB) leukemia) [µM] |
| --- | --- | --- | --- | --- | --- | --- | --- | --- | --- | --- | --- | --- | --- | --- |
| N/N=C(\CC1OC(=O)c2ccccc21)c1ccco1 (stereo not given) | > 100 µM | > 100 µM | > 100 µM | > 100 µM | > 100 µM | > 100 µM | > 100 µM |  |  |  |  |  |  |  |
| C1CNCCNCCNCCN1 |  | > 100 µM |  | > 100 µM | > 100 µM | > 100 µM | > 100 µM |  |  |  |  |  |  |  |
| Cc1cc(O)c(C(=O)CC2(O)C(=O)Nc3c(Cl)cc(Cl)cc32)c(=O)o1 (stereo not given) | > 100 µM | > 100 µM | > 100 µM | > 100 µM | > 100 µM | > 100 µM | > 100 µM |  |  |  |  |  |  |  |
| CC(=O)OCSc1ncnc2c1ncn2CN1CCOCC1 | > 100 µM | > 100 µM | > 100 µM | > 100 µM | > 100 µM | > 100 µM | > 100 µM |  |  |  |  |  |  |  |
| COc1cc2c(c(OC)c1OC)-c1ccc(SC)c(=O)cc1[C@@H](NC(=O)c1ccc(OC(C)=O)cc1)CC2 | 23.1 µM | 6.03 µM | 24.8 µM | > 100 µM | 65.5 µM | 0.0407 µM | 20.5 µM | 10.6 |  |  |  |  |  |  |
| COC1/C(=C\C(=O)OC(C)(C)C)c2ccccc2N1C(C)=O (stereo not given) | > 100 µM | > 100 µM |  | > 100 µM |  | > 100 µM | > 100 µM |  |  |  |  |  |  |  |
| N#CCc1ccc(C(C#N)/C(CCCC(=O)Nc2cccc([N+](=O)[O-])c2)=N\NC(=O)NN)cc1 (stereo not given) | > 100 µM | > 100 µM | > 100 µM | > 100 µM | > 100 µM | > 100 µM | > 100 µM |  |  |  |  |  |  |  |
| O=[N+]([O-])c1ccc(Sc2c3ccccc3nc3ccccc23)cc1 | > 100 µM | > 100 µM | > 100 µM | > 100 µM | > 100 µM | > 100 µM | > 100 µM |  |  |  |  |  |  |  |
| Cc1cccc(C)c1NC(=O)CCCC(=O)CC(=O)/C=C/c1ccccc1 | > 100 µM | > 100 µM | > 100 µM | > 100 µM | > 100 µM | > 100 µM |  |  |  |  |  |  |  |  |
| CCOC(=O)/C(=C\c1ccc(OCc2ccccc2)c(OC)c1)C(=O)c1ccccc1 | > 100 µM | 48.3 µM |  | 64.6 µM | 48.6 µM | 41.2 µM | 49 µM |  |  |  |  |  |  |  |
| CN(C)CC(/C(Cc1ccccc1)=N\NC(=O)c1ccncc1)c1ccccc1 (stereo not given) | > 100 µM | > 100 µM | > 100 µM | > 100 µM | > 100 µM |  | 32 µM |  |  |  |  |  |  |  |
| Cc1nc2c(=O)[nH]c(=O)n(C)c2[nH]c1=O | > 100 µM | > 100 µM | > 100 µM | > 100 µM | > 100 µM | > 100 µM | > 100 µM |  |  |  |  |  |  |  |
| NCCCN(CCCN)CCCNCc1c2ccccc2c(CNCCCN(CCCN)CCCN)c2ccccc12 | 34 µM | > 100 µM | 57.7 µM | 28.1 µM | > 100 µM | 14 µM | 38 µM |  |  |  |  |  |  |  |
| O=C(CNC(=O)OCc1ccccc1)Oc1ccccc1 | > 100 µM | > 100 µM | > 100 µM | > 100 µM | > 100 µM | > 100 µM | > 100 µM |  |  |  |  |  |  |  |
| CC1Cc2c(N)nc(NN)nc2NC1=O (stereo not given) |  | > 100 µM |  | > 100 µM |  | > 100 µM | > 100 µM |  |  |  |  |  |  |  |
| CC1(CO)OC1COCc1ccccc1 (stereo not given) |  | > 100 µM | > 100 µM | > 100 µM | > 100 µM | > 100 µM | > 100 µM |  |  |  |  |  |  |  |
| COc1ccc2c([nH]c3cc(O)c(C)cc32)c1C=O | > 25 µM | > 25 µM | > 25 µM | > 25 µM | > 25 µM | > 25 µM | > 25 µM |  |  |  |  |  |  |  |
| CC(C)=CC(=O)Oc1ccc([N+](=O)[O-])cc1 | > 100 µM | > 100 µM | > 100 µM | > 100 µM | > 100 µM | > 100 µM | 59.5 µM |  |  |  |  |  |  |  |
| O=C1CCCCCCCCCCC(=O)C2CCOCCOCCOCCC1Cc1cccc(n1)C2 | > 100 µM | > 100 µM | > 100 µM | > 100 µM |  | > 100 µM |  |  |  |  |  |  |  |  |
| CC(=O)NC1=C(Nc2ccc(C)cc2)C(=O)c2ccccc2C1=O | 46.8 µM | > 75 µM | > 75 µM | 50.8 µM | 27.4 µM | > 75 µM | 41.1 µM |  |  |  |  |  |  |  |
| CC(=O)OCC1OC(OC2CC3C(C)(C)C(OC(C)=O)CC[C@]3(C)C3CCC45CC4(CC[C@H]5C(C)CC(O)[C@@H](O)C(C)(C)O)[C@]23C)C(O)C(O)C1O (stereo not given in full) | 12.7 µM and 26.1 µM | 13.8 µM and 18.7 µM | 14.6 µM and 28.8 µM | 13.7 µM and 14.4 µM | 13.9 µM and 27.9 µM | 14.2 µM and 14.1 µM | 11.9 µM and 5.3 µM | 13.4 | 3.47 | 15.4 | 4.63 | 14.6 | 4.36 | 2.45 |
| CCOc1cc2c(cnc3c4cc(OC)c(OC)cc4ccc23)cc1OC | > 100 µM | > 100 µM | > 100 µM | > 100 µM | > 100 µM | > 100 µM |  |  |  |  |  |  |  |  |
| COc1ccc(C(=O)C(c2ccc(OC)cc2)C2(O)C(=O)Nc3c(C)cc(Cl)cc32)cc1 (stereo not given) | > 100 µM | > 100 µM | > 100 µM | > 100 µM | > 100 µM | > 100 µM | > 100 µM |  |  |  |  |  |  |  |

From PubChem BioAssay (NCI)
